According to publication PMC12677653, “Inhibition of Tumor Lipogenesis and Growth by Peptide‐Based Targeting of SREBP Activation” (Advanced Science, 2025):
Residues, ends and D or L forms follow the SMILES beside them.

Columns and labels:
Huh7 cells = assay: Cellular peptide uptake, western blot; type: in vitro ADME, human; conditions: biotin-labeled peptide 15 μM, 30 min, TAT versus TAT-LOF sequence
Protocol: d) Huh7 cells were incubated for 30 min with biotin-labeled Insig1/2 loop1 peptide (15 μM), either with TAT or TAT loss of function (TAT-LOF) sequence, with subsequent western blot analysis of cellular peptide uptake.

tumor cell apoptosis = assay: TUNEL assay of tumor tissues; type: in vivo, BALB/c athymic nude mice; conditions: cryosections of Huh7 tumors, n = 4; peptide given as LNP 10 mg/kg iv; lenvatinib mesylate 2 mg/kg oral
Protocol: (§1) Representative micrographs are shown (scale bar: 20 µm). b,c) Cryosections of mouse tumor tissues were prepared for histological analysis. (b) Lipid accumulation was assessed by Oil Red O staining. Representative micrographs are shown (scale bar: 20 µm). (c) Apoptotic cells were detected by TUNEL assay. Representative micrographs are shown (scale bar: 20 µm). d,e) Quantitative analysis of (d) apoptotic areas (TUNEL‐positive regions) and (e) lipid droplet counts (Oil Red O‐positive particles) was performed. Data represent the mean ± SD (n = 4). Statistical significance was determined by one‐way analysis of variance (ANOVA). ** p < 0.01, **** p < 0.0001, ns, no significance.
Mouse tumor tissues were sectioned at 5 µm thickness. Apoptotic cells were counted using the colorimetric TUNEL System (Beyotime, C1091) according to the manufacturer's instructions. The total numbers of apoptotic cells were counted in six high‐power fields and presented as an average number of apoptotic cells per high‐power fields.

[1] = tested on: lipid accumulation in tumor tissues; assay: Oil Red O staining of tumor tissues; type: in vivo, BALB/c athymic nude mice; conditions: cryosections of Huh7 tumors, n = 4; peptide given as LNP 10 mg/kg iv; lenvatinib mesylate 2 mg/kg oral
Protocol: as §1
Cryosections 6–8 µm in thickness were air‐dried and fixed with formaldehyde for 5–10 min. Then, the slides were placed in absolute propylene glycol for 2–5 min and stained with 0.5% Oil red O dye. After staining, the slides were rinsed, counterstained with Mayer's hematoxylin for 1 min, and mounted in glycerin.

[2] = tested on: Insig1 pS207/Insig2 pS151, SREBP1, Ki67; assay: IHC analysis of mouse tumors derived from Huh7 cells; type: in vivo, BALB/c athymic nude mice; conditions: peptide given as LNP@Insig1/2 loop 1 peptide 10 mg/kg iv, lenvatinib mesylate 2 mg/kg oral
Protocol: as §1
As described previously,^[ [39] ^] IHC staining was performed using the Vectastain ABC kit (Vector Laboratories) according to the manufacturer's instructions. Sections of paraffin‐embedded xenograft tumors were stained with antibodies against Ki67, SREBP1, Insig1 pS207/Insig2 pS151, and nonspecific IgG was used as a negative control. Paraffin‐embedded human liver tumor sections were stained with antibodies against Ki67, SREBP1, Insig1 pS207/Insig2 pS151, with nonspecific IgG as a negative control. The tissue sections were quantitatively scored according to the percentage of positive cells and staining intensity. […] The intensity of staining was rated on a scale of 0 to 3: 0, negative; 1, weak; 2, moderate; and 3, strong. The study then combined the proportion and intensity scores to obtain a total score (range, 0–8).

[3] = molecular target: T1, S90-phosphorylated GST-PCK1 (human, UniProt P35558 1-622, phosphoserine at 90; biotin (G-MM-IGT Biotinylation kit)); assay: BLI; phosphorylated S90
T1 chain: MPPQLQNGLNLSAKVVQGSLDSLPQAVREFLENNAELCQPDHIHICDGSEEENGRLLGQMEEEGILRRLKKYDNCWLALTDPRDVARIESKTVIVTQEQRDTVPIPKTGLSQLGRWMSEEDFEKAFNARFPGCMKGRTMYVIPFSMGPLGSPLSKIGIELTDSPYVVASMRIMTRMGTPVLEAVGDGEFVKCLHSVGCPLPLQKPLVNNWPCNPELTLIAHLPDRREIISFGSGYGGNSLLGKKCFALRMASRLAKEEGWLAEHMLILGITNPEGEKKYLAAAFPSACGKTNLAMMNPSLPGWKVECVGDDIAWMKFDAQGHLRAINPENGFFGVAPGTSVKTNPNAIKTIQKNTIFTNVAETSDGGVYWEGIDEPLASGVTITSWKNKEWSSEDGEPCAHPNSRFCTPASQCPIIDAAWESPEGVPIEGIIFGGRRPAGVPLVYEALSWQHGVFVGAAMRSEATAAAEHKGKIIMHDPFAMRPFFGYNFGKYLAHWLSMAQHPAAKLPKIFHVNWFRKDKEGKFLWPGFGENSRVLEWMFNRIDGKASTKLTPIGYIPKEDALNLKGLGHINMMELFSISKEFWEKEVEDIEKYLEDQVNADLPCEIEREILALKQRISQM

WT GST-PCK1 = molecular target: T2, WT GST-PCK1 (human, UniProt P35558 1-622, biotin (G-MM-IGT Biotinylation kit)); assay: BLI
T2 chain: T1 chain

Molecule: CC[C@H](C)[C@H](NC(=O)[C@H](CS)NC(=O)[C@@H]1CCCN1C(=O)[C@H](Cc1ccc(O)cc1)NC(=O)[C@H](CC(C)C)NC(=O)CCCC[C@@H]1SC[C@@H]2NC(=O)N[C@@H]21)C(=O)N[C@@H](CC(=O)O)C(=O)N[C@@H](CO)C(=O)N[C@@H](Cc1c[nH]cn1)C(=O)N[C@@H](CC(C)C)C(=O)NCC(=O)N[C@@H](CCC(=O)O)C(=O)N1CCC[C@H]1C(=O)N[C@@H](Cc1c[nH]cn1)C(=O)N[C@@H](CCCCN)C(=O)N[C@@H](Cc1ccccc1)C(=O)N[C@@H](CCCCN)C(=O)N[C@@H](CCCNC(=N)N)C(=O)N[C@@H](CCC(=O)O)C(=O)N[C@@H](C)C(=O)N[C@@H](C)C(=O)N[C@@H](CCC(=O)O)C(=O)N[C@@H](C)C(=O)N[C@@H](C)C(=O)N[C@@H](CCC(N)=O)C(=O)N[C@@H](C)C(=O)N[C@@H](C)C(=O)N[C@@H](CCC(=O)O)C(=O)O [Biotin‐peptide‐TAT LOF] (HELM PEPTIDE1{[O=C1N[C@H]2[C@H](CS[C@H]2CCCCC(=O)[*:2])N1].L.Y.P.C.I.D.S.H.L.G.E.P.H.K.F.K.R.E.A.A.E.A.A.Q.A.A.E}$$$$V2.0)
- peptide accumulation in tumor cells in vitro (Huh7 cells): substantially reduced peptide accumulation

Molecule: COc1cc2nccc(Oc3ccc(NC(=O)NC4CC4)c(Cl)c3)c2cc1C(N)=O [lenvatinib, reference compound]
- cell apoptosis in tumor tissues (TUNEL) (tumor cell apoptosis): induced cell apoptosis in tumor tissues
- lipid accumulation in tumor tissues (Oil Red O) [1]: reductions were also observed
- Insig1 S207/Insig2 S151 phosphorylation in tumors [2]: reductions were also observed
- Ki67 expression in tumors [2]: reductions were also observed
- SREBP1 expression and nuclear accumulation in tumors [2]: reductions were also observed

B1: Insig1/2 loop 1 peptide (143-LYPCIDSHLGEPHKFKRE-160) (peptide)
chain: LYPCIDSHLGEPHKFKRE
- Kd [3]: 10.5 µM
- Kd (WT GST-PCK1): 36.8 µM
